Each structure is given as a SMILES string.

The test concerns the target Cathepsin S (human recombinant CTSS) (Homo sapiens, UniProt P25774). The test is described as follows: fluorescence CTSS activity assay kit with recombinant enzyme. It counts as biochemical.

Sequence of Cathepsin S (human recombinant CTSS) (P25774 115-331): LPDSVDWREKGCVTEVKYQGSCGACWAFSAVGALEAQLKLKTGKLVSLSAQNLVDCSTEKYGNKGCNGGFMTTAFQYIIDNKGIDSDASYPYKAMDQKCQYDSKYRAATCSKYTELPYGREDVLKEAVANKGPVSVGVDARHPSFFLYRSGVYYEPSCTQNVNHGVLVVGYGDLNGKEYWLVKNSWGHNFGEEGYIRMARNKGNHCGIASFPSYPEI

As for `CC(C)C[C@H](NC(=O)[C@H](Cc1ccccc1)NC(=O)OCc1ccccc1)C(=O)C=O` [Z-FL-hydrate, Z-FL-COCHO-hydrate], the IC50 stood at 262 ± 59.3 nM.

Regarding `CC(C)C[C@H](NC(=O)[C@H](Cc1ccccc1)NC(=O)OCc1ccccc1)C(=O)C=O` [Z-FL, Z-FL-COCHO], the IC50 is 172 ± 32.7 nM.

The record behind these values is PMC6606642, “Inhibition of Cathepsin S Reduces Lacrimal Gland Inflammation and Increases Tear Flow in a Mouse Model of Sjögren’s Syndrome” (Scientific Reports, 2019).
